Laboratory results from patent publication US20220016243A1, “METHODS FOR TREATMENT OF CANCER WITH AN ANTI-TIGIT ANTAGONIST ANTIBODY” (Genentech, Inc., priority 2020, published 2022).
Like-named read-outs stand apart in the source and are kept apart here.

Tests used:
[1] = cited from earlier work
[2] = human, in vivo; cited from earlier work
[3] = Internal safety review of lung cancer clinical trials (paclitaxel); format: in vivo, human; settings: patients from Asian countries compared with those from non-Asian countries
Experimental: Patients of Asian race/ethnicity have a lower starting dose of paclitaxel at 175 mg/m2 IV over 3 hours. […] As used in this study, Asian race/ethnicity refers to a panethnic/racial group that includes diverse populations who either live or have ancestral origins in East Asia, Southeast Asia, or South Asia. The applicability of such term in a particular patient is at the discretion of the treating investigator and should be based on the patient's clinical characteristics and country of origin.

[4] = system: patients with advanced or metastatic HCC; settings: cited from earlier work
[5] = system: patients with metastatic bladder; settings: 8 of 17 patients at the recommended Phase II dose; prior CPI treatment; 95% CI: 23, 72.2; cited from earlier work
[6] = system: chemotherapy-naive patients with locally advanced unresectable or metastatic PD-L1-selected NSCLC; settings: cutoff 30 Jun. 2019
[7] = system: patients with mUC who had progressed on platinum-based therapy and checkpoint inhibitor therapy; settings: cited from earlier work

Compound: [NH2][Pt]1([NH2])[O]C(=O)C2(CCC2)C(=O)[O]1 [carboplatin, platinum, diammine[I,I-cyclobutanedicarboxylato(2-)-0,0′]-, (SP-4-2)]
- pH of a 1% solution ([1]; 1% solution): 5 to 7
- solubility in ethanol, acetone, and dimethylacetamide ([1]; ethanol, acetone, dimethylacetamide): virtually insoluble
- solubility in water ([1]; water): approximately 14 mg/mL

Compound: Nc1ccn([C@@H]2O[C@H](CO)[C@@H](O)C2(F)F)c(=O)n1 [gemcitabine]
- most common adverse events [2]: nausea/vomiting, anemia, hepatic transaminitis, neutropenia, increased ALP, proteinuria, fever, hematuria, rash, thrombocytopenia, dyspnea, and peripheral edema

Compound: CC(=O)O[C@H]1C(=O)[C@@]2(C)[C@H]([C@H](OC(=O)c3ccccc3)[C@]3(O)C[C@H](OC(=O)[C@H](O)[C@@H](NC(=O)c4ccccc4)c4ccccc4)C(C)=C1C3(C)C)[C@]1(OC(C)=O)CO[C@@H]1C[C@@H]2O [paclitaxel]
- incidence of hematologic toxicities [3]: higher overall incidence of hematologic toxicities

Compound: CNC(=O)c1cc(Oc2ccc(NC(=O)Nc3ccc(Cl)c(C(F)(F)F)c3)cc2)ccn1 [sorafenib]
- median PFS ([4]; Independent Review Facility-assessed per RECIST v1.1): 4.27 months
- median OS ([4]; in vivo): 13.24 months

Compound: enfortumab vedotin
- patients who obtained a PR [5]: 47%

Compound: placebo and atezolizumab: control arm of Study GO40290: placebo in combination with atezolizumab
- all-grade adverse events ([6]; 135 safety-evaluable patients, tiragolumab 600 mg every 3 weeks): 95.6%
- ORR ([6]; ITT population): 16.2%
- investigator-assessed PFS ([6]; ITT population): 3.6 months
- AEs leading to treatment discontinuation [6]: 10.3%
- Grade ≥3 AEs [6]: 44.1%
- adverse events of special interest [6]: 32.4%
- serious AEs [6]: 35.3%

Compound: sacituzumab govitecan
- ORR ([7]; 35 patients): 29%
- ORR ([7]; patients with liver metastases): 25.0%
